Legend:
Caco-2 cells = experiment: Absorption in a Caco-2 cells model; assay type: in vitro ADME
Protocol: (§1) The absorption of the compounds of formula (I) was tested in a Caco-2 cells model (Gastroenterology 1989, 96, 736).

[1] = Absorption in a Caco-2 cells model; assay type: in vitro ADME; conditions: human, read-out: Apparent partition coefficient, Papp
Protocol: as §1

Apparent partition coefficient; Papp [cm/s] (Caco-2 cells)	absorption compared with ezetimibe (Caco-2 cells; compared with ezetimibe)	Papp [1]	SMILES
0.24 × 10^−06 cm/s	much lower absorption		O=C(O)CNC(=O)COc1ccc(C2C(SCC(O)c3ccc(F)cc3)C(=O)N2c2ccccc2)cc1 [Example 24, 3-(R)-4-(R)-1-(Phenyl)-3-[2-(4-fluorophenyl)-2-hydroxyethylsulphany[-4-{4-[N-(carboxymethyl)carbamoylmethoxy]phenyl}azetidin-2-one]
		21 ×10⁻⁶ cm/s	O=C1[C@H](CC[C@H](O)c2ccc(F)cc2)[C@@H](c2ccc(O)cc2)N1c1ccc(F)cc1 [Ezetimibe, reference compound]
